The record followed here is US8093279B2, “Compound” (priority 2005, dated 2012).

SMILES strings stand for the structures. pIC50: −log10 of the molar value. Bounds are passed on as bounds.

One data set concerns the target T1, Aromatase (Homo sapiens, UniProt P11511).
T1 construct: host or cells: JEG3 choriocarcinoma cells (intact monolayers)
T1 sequence (P11511 1-503): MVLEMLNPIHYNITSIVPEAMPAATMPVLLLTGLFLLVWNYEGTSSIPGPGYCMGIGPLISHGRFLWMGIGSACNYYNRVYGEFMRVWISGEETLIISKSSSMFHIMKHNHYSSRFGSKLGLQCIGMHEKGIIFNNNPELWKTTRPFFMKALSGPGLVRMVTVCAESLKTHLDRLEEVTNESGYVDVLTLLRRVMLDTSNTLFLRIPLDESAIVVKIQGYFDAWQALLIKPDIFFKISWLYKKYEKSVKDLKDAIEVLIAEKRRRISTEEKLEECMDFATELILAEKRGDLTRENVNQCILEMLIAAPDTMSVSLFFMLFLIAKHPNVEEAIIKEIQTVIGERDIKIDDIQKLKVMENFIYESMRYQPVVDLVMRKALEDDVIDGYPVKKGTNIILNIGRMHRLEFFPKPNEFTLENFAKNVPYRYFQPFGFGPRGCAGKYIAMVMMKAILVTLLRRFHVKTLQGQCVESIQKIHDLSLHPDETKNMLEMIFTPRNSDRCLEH
As to the kind of experiment: Aromatase activity in JEG3 choriocarcinoma cells (Protocol 6). It is filed as cell-based. To be noted: for pIC50: JEG3 cells. The protocol: Aromatase activity is measured in JEG3 choriocarcinoma cells, obtained from the ATCC.
During the aromatase reaction, ^3H2O is liberated which can be quantified using a liquid scintillation spectrometer (Beckman-Coulter, High Wycombe, Bucks. UK). […] The number of cell nuclei per flask is determined using a Coulter Counter after treating the cell monolayers with Z aponin.
Unpaired Student's t test was used to test the statistical significance of results.
A number of compounds were tested for aromatase and steroid sulphatase inhibition in accordance with the above Protocols 1 and 6.

`COc1ccc(-c2cccc(Cn3cncn3)c2)cc1Cl` [compound 1512] showed a pIC50 against Aromatase above 6.00.

In turn, `CC(C)(C#N)c1cc(Cn2cncn2)cc(-c2ccc(O)cc2)c1` [compound 1521] had a pIC50 against Aromatase above 6.00.

At Aromatase, `c1ccc(Oc2ccccc2-c2ccc(Cn3cncn3)cc2)cc1` [compound 1835] had a pIC50 above 6.00.

With `COc1ccc2cc(-c3cccc(Cn4cncn4)c3)ccc2c1` [compound 1981], the pIC50 against Aromatase was above 6.00.

The molecule `N#Cc1cc(Cn2cncn2)cc(-c2ccccc2)c1` [Compound 34, 5-((1H-1,2,4-triazol-1-yl)methyl)biphenyl-3-carbonitrile] showed a melting point of 109 to 110 °C. This molecule also had a pIC50 on Aromatase above 6.00.

`c1ccc(-c2cccc(Cn3cncn3)c2)cc1` [compound 1361] had a pIC50 at Aromatase above 6.00.

Regarding `c1ccc(COc2ccc(-c3cccc(Cn4cncn4)c3)cc2)cc1` [compound 1362], on Aromatase, the pIC50 is above 5.00.

`N#Cc1ccc(Cn2cncn2)c(-c2ccc(O)c(Cl)c2)c1` [Compound 52, 6-((1H-1,2,4-triazol-1-yl)methyl)-3′-chloro-4′-hydroxybiphenyl-3-carbonitrile] had a melting point of 243 to 245 °C. Also, the pIC50 against Aromatase is above 6.00.

`CC(C)(C#N)c1cc(Cn2cncn2)cc(-c2cccc(C#N)c2)c1` [compound 1509] had a pIC50 against Aromatase above 6.00.

At Aromatase, `Clc1ccc(-c2cccc(Cn3cncn3)c2)cc1` [compound 1386] showed a pIC50 above 6.00.

In the case of `c1ccc(-c2ccc(-c3cccc(Cn4cncn4)c3)cc2)cc1` [compound 1388], the pIC50 against Aromatase is above 5.00.

The molecule `N#Cc1cc(Cn2cncn2)cc(-c2ccc(O)c(Cl)c2)c1` [Compound 39] registered a melting point of 208 to 209 °C. The molecule further had a pIC50 on Aromatase above 6.00.

With `N#Cc1ccc(-c2cc(C#N)cc(Cn3cncn3)c2)cc1` [Compound 36, 5-((1H-1,2,4-triazol-1-yl)methyl)biphenyl-3,4′-dicarbonitrile], the melting point was in the range of 154 to 155 °C. On Aromatase, this molecule gave a negative-log IC50 (pIC50) above 6.00.

On to `N#Cc1ccc(-c2cccc(OS(N)(=O)=O)c2)cc1Cn1cncn1` [Compound 29, 3′-((1H-1,2,4-triazol-1-yl)methyl)-4′-cyanobiphenyl-3-yl sulfamate], for which the melting point was 137 to 138 °C. In addition, the “JEG3-cells Aromatase, % at single concentration” value at Aromatase (@ 1 μM) is listed as 63.4 ± 2.1% @ 1 μM.

At Aromatase, `N#Cc1ccc(-c2ccc3ccccc3c2)cc1Cn1cncn1` [compound 1504] showed a pIC50 above 6.00.

For `N#Cc1ccc(-c2ccccc2)cc1Cn1cncn1` [compound 1456], the pIC50 against Aromatase is above 6.00.

On Aromatase, `Clc1cccc(-c2cccc(Cn3cncn3)c2)c1` [compound 1384] gave a pIC50 above 6.00.

Molecule `N#Cc1ccc(-c2ccc(O)cc2)cc1Cn1cncn1` [compound 1520] had a pIC50 on Aromatase above 6.00.

For the molecule `Fc1ccc(-c2ccccc2)cc1Cn1cncn1` [compound 1841], the pIC50 at Aromatase is above 6.00.

`N#Cc1cc(Cn2cncn2)ccc1-c1ccc(O)c(Cl)c1` [Compound 49, 4-((1H-1,2,4-triazol-1-yl)methyl)-3′-chloro-4′-hydroxybiphenyl-2-carbonitrile] yielded a melting point of 195 to 197 °C. For the same molecule, the pIC50 against Aromatase was above 6.00.

The molecule `c1cc(Cn2cncn2)cc(-c2ccc3ccccc3c2)c1` [compound 1385] showed a pIC50 against Aromatase above 6.00.

As for `N#Cc1ccc(Cn2cncn2)c(-c2ccccc2)c1` [Compound 51], the pIC50 against Aromatase is above 6.00.

For `CC(C)(C#N)c1cc(Cn2cncn2)cc(-c2cccc(Cl)c2)c1` [compound 1507], the pIC50 on Aromatase was above 6.00.

For the molecule `NS(=O)(=O)Oc1ccc2cc(-c3cccc(Cn4cncn4)c3)ccc2c1` [compound 2052], at Aromatase, the pIC50 was above 5.00.

On to `N#Cc1cccc(-c2cccc(Cn3cncn3)c2)c1` [compound 1458], for which, on Aromatase, the pIC50 is above 6.00.

As for `Oc1ccc(-c2ccc(F)c(Cn3cncn3)c2)cc1` [compound 1842], at Aromatase, the pIC50 was above 6.00.

Molecule `N#Cc1cc(Cn2cncn2)cc(-c2ccc(OS(N)(=O)=O)cc2)c1` [Compound 38, 3′-((1H-1,2,4-triazol-1-yl)methyl)-5′-cyanobiphenyl-4-yl sulfamate] showed a melting point of 166 to 167 °C. On Aromatase, this molecule had a pIC50 above 6.00.

In turn, `Oc1ccc(-c2cccc(Cn3cncn3)c2)cc1Cl` [compound 1519] gave a pIC50 against Aromatase above 6.00.

With `O=C(c1ccccc1)c1cccc(-c2cccc(Cn3cncn3)c2)c1` [compound 1511], at Aromatase, the pIC50 was above 6.00.

Take `N#Cc1ccc(-c2cccc(Cl)c2)cc1Cn1cncn1` [compound 1503]: the pIC50 on Aromatase is above 6.00.

In the case of `N#Cc1cccc(-c2ccc(C#N)c(Cn3cncn3)c2)c1` [compound 1505], the pIC50 against Aromatase is above 5.00.

`CC(C)(C#N)c1cc(Cn2cncn2)cc(-c2ccccc2)c1` [compound 1506]: the pIC50 on Aromatase was above 6.00.

For `CC(C)(C#N)c1cc(Cn2cncn2)cc(-c2cccc(C(=O)c3ccccc3)c2)c1` [compound 1844], the pIC50 at Aromatase is above 6.00.

In turn, `Oc1cccc(-c2cccc(Cn3cncn3)c2)c1` [compound 1840] showed a pIC50 against Aromatase above 6.00.

For `N#Cc1ccc(Cn2cncn2)cc1-c1ccccc1` [compound 1978], the pIC50 on Aromatase is above 6.00.

The molecule `N#Cc1ccc(Cn2cncn2)c(-c2ccc(OS(N)(=O)=O)c(Cl)c2)c1` [Compound 53, 2′-((1H-1,2,4-triazol-1-yl)methyl)-3-chloro-5′-cyanobiphenyl-4-yl sulfamate] yielded a melting point of 139 to 142 °C. For the same molecule, the negative logarithm of the IC50 (pIC50) against Aromatase is above 6.00.

In turn, `N#Cc1ccc(Cn2cncn2)cc1-c1ccc(Cl)c(O)c1` [Compound 25] yielded a melting point of 228 to 229 °C. On Aromatase, this molecule gave a pIC50 above 6.00.

The molecule `N#Cc1ccc(-c2cccc(O)c2)cc1Cn1cncn1` [compound 1843] gave a pIC50 against Aromatase above 6.00.

`N#Cc1ccc(-c2cccc(Cn3cncn3)c2)cc1` [compound 1459] had a pIC50 against Aromatase above 6.00.

On Aromatase, `CC(=O)c1cccc(-c2cccc(Cn3cncn3)c2)c1` [compound 1838] showed a pIC50 above 6.00.

As to `N#Cc1cc(Cn2cncn2)ccc1-c1ccccc1` [Compound 46], the pIC50 against Aromatase is above 6.00.

As to `CN(C)S(=O)(=O)Oc1ccc(-c2cc(Cn3cncn3)ccc2C#N)cc1` [Compound 21, 5′-((1H-1,2,4-triazol-1-yl)methyl)-2′-cyanobiphenyl-4-yl dimethylsulfamate], the pIC50 on Aromatase is above 6.00.

The molecule `N#Cc1ccc(-c2ccc(C#N)c(Cn3cncn3)c2)cc1` [compound 1510] gave a pIC50 against Aromatase above 6.00.

Consider `COc1ccc(-c2cccc(Cn3cncn3)c2)cc1` [compound 1452], for which the pIC50 at Aromatase was above 6.00.

The molecule `N#Cc1cc(Cn2cncn2)ccc1-c1ccc(O)cc1` [Compound 47] yielded a melting point of 168 to 171 °C. Further, the pIC50 against Aromatase was above 6.00.

`c1ccc(-c2ccc(Cn3cncn3)cc2)cc1` [compound 1975] showed a pIC50 against Aromatase above 5.00.

Consider `N#Cc1cc(Cn2cncn2)cc(-c2ccc(O)cc2)c1` [Compound 37, 5-((1H-1,2,4-triazol-1-yl)methyl)-4′-hydroxybiphenyl-3-carbonitrile], for which the melting point was in the range of 186 to 187 °C. The same molecule showed a pIC50 on Aromatase above 6.00.

On Aromatase, `CC(C)(C#N)c1cc(Cn2cncn2)cc(-c2ccc3ccccc3c2)c1` [compound 1508] had a pIC50 above 6.00.

At Aromatase, `Clc1cc(-c2cccc(Cn3cncn3)c2)ccc1OCc1ccccc1` [compound 1502] had a pIC50 above 5.00.

`N#Cc1ccc(Cn2cncn2)cc1-c1ccc(Cl)c(OS(N)(=O)=O)c1` [Compound 26, 5′-((1H-1,2,4-triazol-1-yl)methyl)-4-chloro-2′-cyanobiphenyl-3-yl sulfamate] gave a melting point of 148 to 150 °C. The pIC50 against Aromatase was above 6.00.

`N#Cc1ccc(-c2ccc(OCc3ccccc3)cc2)cc1Cn1cncn1` [compound 1457]: the pIC50 against Aromatase is above 5.00.

As to `Oc1ccc(-c2cccc(Cn3cncn3)c2)cc1` [compound 1387], the pIC50 on Aromatase is above 6.00.

Turning to `N#Cc1cc(Cn2cncn2)cc(-c2ccc(F)cc2)c1` [Compound 35, 5-((1H-1,2,4-triazol-1-yl)methyl)-4′-fluorobiphenyl-3-carbonitrile], the melting point fell in the range of 134 to 135 °C. The same molecule showed a pIC50 at Aromatase above 6.00.

As to `CN(C)S(=O)(=O)Oc1ccc(-c2cc(Cn3cncn3)ccc2C#N)cc1Cl` [Compound 24, 5′-((1H-1,2,4-triazol-1-yl)methyl)-3-chloro-2′-cyanobiphenyl-4-yl dimethylsulfamate], the melting point was in the range of 119 to 120 °C. For the same molecule, the negative-log IC50 (pIC50) on Aromatase was above 6.00.

As for `Fc1cccc(-c2cccc(Cn3cncn3)c2)c1` [compound 1524], the pIC50 against Aromatase is above 6.00.

`CC(C)(C#N)c1cc(Cn2cncn2)cc(-c2ccc(OS(N)(=O)=O)cc2)c1` [Compound 56, 3′-((1H-1,2,4-triazol-1-yl)methyl)-5′-(2-cyanopropan-2-yl)biphenyl-4-yl sulfamate] had a melting point of 74 to 76 °C. The same molecule gave a pIC50 at Aromatase above 6.00.

On Aromatase, `c1cc(Cn2cncn2)cc(-c2cccc3c2oc2ccccc23)c1` [compound 1839] gave a pIC50 above 6.00.

`Fc1ccc(-c2cccc(Cn3cncn3)c2)cc1` [compound 1525] had a pIC50 against Aromatase above 6.00.

The pIC50 is −log10 of the IC50, conventionally taken in molar units. High values mean a small IC50, low ones a large IC50. What is called melting point is the temperature, or range, at which the solid turns liquid.
